Among the data in patent US8574563B2 (Bristol-Myers Squibb Company, priority 2006, dated 2013) are EC50 values, retold here.

The test system of this assay is HCV 1b-377-neo replicon cells. Nature of the assay: HCV replicon assay, HCV 1b-377-neo replicon cells (1b FRET). The class given is cell-based, Hepatitis C virus genotype 1b. The conditions noted are these: Hepatitis C virus, HCV 1b-377-neo replicon cells; HCV 1b genotype; read-out: EC50 range against HCV 1b (Table 2, Range). A digest of the protocol:
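Compounds tested in HCV genotype 1b-377-neo replicon cells with a FRET read-out. Cells resistant to a reference NS5A inhibitor through a Y2065H NS5A mutation were run alongside wild-type cells.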
With `COC(=O)N[C@@H](Cc1ccc(OCc2ccccc2)cc1)C(=O)N1CCC[C@H]1c1ncc(-c2ccc(-c3ccc(-c4cnc([C@@H]5CCCN5C(=O)[C@@H](NC(=O)OC)[C@@H](C)OC)[nH]4)cc3)cc2)[nH]1` [cj-105, methyl ((1S,2R)-1-(((2S)-2-(5-(4′-(2-((2S)-1-(O-benzyl-N-(methoxycarbonyl)-L-tyrosyl)-2-pyrrolidinyl)-1H-imidazol-5-yl)-4-biphenylyl)-1H-imidazol-2-yl)-1-pyrrolidinyl)carbonyl)-2-methoxypropyl)carbamate], the EC50 lay in the range of 0.001 to 0.999 nM. On to `CCN(CC)[C@@H](C(=O)N1CCC[C@H]1c1ncc(-c2ccc(-c3ccc(-c4cnc([C@@H]5CCCN5C(=O)[C@H](Cc5ccc(OCc6ccccc6)cc5)NC(=O)OC)[nH]4)cc3)cc2)[nH]1)c1ccccc1` [cj-106, methyl ((1S)-1-(4-(benzyloxy)benzyl)-2-((2S)-2-(5-(4′-(2-((2S)-1-((2R)-2-(diethylamino)-2-phenylacetyl)-2-pyrrolidinyl)-1H-imidazol-5-yl)-4-biphenylyl)-1H-imidazol-2-yl)-1-pyrrolidinyl)-2-oxoethyl)carbamate], for which the EC50 was 0.001 to 0.999 nM.

`COC(=O)N[C@@H](C)C(=O)N1CCC[C@H]1c1ncc(-c2ccc(-c3ccc(-c4cnc([C@@H]5CCCN5C(=O)[C@H](Cc5ccc(OCc6ccccc6)cc5)NC(=O)OC)[nH]4)cc3)cc2)[nH]1` [cj-107, methyl ((1S)-1-(4-(benzyloxy)benzyl)-2-((2S)-2-(5-(4′-(2-((2S)-1-(N-(methoxycarbonyl)-L-alanyl)-2-pyrrolidinyl)-1H-imidazol-5-yl)-4-biphenylyl)-1H-imidazol-2-yl)-1-pyrrolidinyl)-2-oxoethyl)carbamate]: the EC50 is 0.001 to 0.999 nM.

For the compound `COC(=O)N[C@@H](C)C(=O)N1CCC[C@H]1c1ncc(-c2ccc(-c3ccc(-c4cnc([C@@H]5CCCN5C(=O)[C@@H]5CCC[C@H]5NC(=O)OC)[nH]4)cc3)cc2)[nH]1` [cj-108, methyl ((1R,2R)-2-(((2S)-2-(5-(4′-(2-((2S)-1-(N-(methoxycarbonyl)-L-alanyl)-2-pyrrolidinyl)-1H-imidazol-5-yl)-4-biphenylyl)-1H-imidazol-2-yl)-1-pyrrolidinyl)carbonyl)cyclopentyl)carbamate], the EC50 lay in the range of 0.001 to 0.999 nM. Consider `CCN(CC)[C@@H](C(=O)N1CCC[C@H]1c1ncc(-c2ccc(-c3ccc(-c4cnc([C@@H]5CCCN5C(=O)[C@@H]5CCC[C@H]5NC(=O)OC)[nH]4)cc3)cc2)[nH]1)c1ccccc1` [cj-109, methyl ((1R,2R)-2-(((2S)-2-(5-(4′-(2-((2S)-1-((2R)-2-(diethylamino)-2-phenylacetyl)-2-pyrrolidinyl)-1H-imidazol-5-yl)-4-biphenylyl)-1H-imidazol-2-yl)-1-pyrrolidinyl)carbonyl)cyclopentyl)carbamate], for which the EC50 was in the range of 0.001 to 0.999 nM. In the case of `COC(=O)N[C@@H](C(=O)N1CCC[C@H]1c1ncc(-c2ccc(-c3ccc(-c4cnc([C@@H]5CCCN5C(=O)[C@@H]5CCC[C@H]5NC(=O)OC)[nH]4)cc3)cc2)[nH]1)c1ccccc1` [cj-110, methyl ((1R)-2-((2S)-2-(5-(4′-(2-((2S)-1-(((1R,2R)-2-((methoxycarbonyl)amino)cyclopentyl)carbonyl)-2-pyrrolidinyl)-1H-imidazol-5-yl)-4-biphenylyl)-1H-imidazol-2-yl)-1-pyrrolidinyl)-2-oxo-1-phenylethyl)carbamate], the EC50 was in the range of 0.001 to 0.999 nM. Take `COC(=O)N[C@@H](Cc1ccc(O)cc1)C(=O)N1CCC[C@H]1c1ncc(-c2ccc(-c3ccc(-c4cnc([C@@H]5CCCN5C(=O)[C@@H](NC(=O)OC)C(C)C)[nH]4)cc3)cc2)[nH]1` [cj-111, methyl ((1S)-1-(4-hydroxybenzyl)-2-((2S)-2-(5-(4′-(2-((2S)-1-((2S)-2-((methoxycarbonyl)amino)-3-methylbutanoyl)-2-pyrrolidinyl)-1H-imidazol-5-yl)-4-biphenylyl)-1H-imidazol-2-yl)-1-pyrrolidinyl)-2-oxoethyl)carbamate]: the EC50 is 0.001 to 0.999 nM. For the compound `CCN(CC)[C@@H](C(=O)N1CCC[C@H]1c1ncc(-c2ccc(-c3ccc(-c4cnc([C@@H]5CCCN5C(=O)[C@H](Cc5ccc(O)cc5)NC(=O)OC)[nH]4)cc3)cc2)[nH]1)c1ccccc1` [cj-112, methyl ((1S)-2-((2S)-2-(5-(4′-(2-((2S)-1-((2R)-2-(diethylamino)-2-phenylacetyl)-2-pyrrolidinyl)-1H-imidazol-5-yl)-4-biphenylyl)-1H-imidazol-2-yl)-1-pyrrolidinyl)-1-(4-hydroxybenzyl)-2-oxoethyl)carbamate], the 50% effective concentration (EC50) is 0.001 to 0.999 nM. With `COC(=O)N[C@@H](C)C(=O)N1CCC[C@H]1c1ncc(-c2ccc(-c3ccc(-c4cnc([C@@H]5CCCN5C(=O)[C@H](Cc5ccc(O)cc5)NC(=O)OC)[nH]4)cc3)cc2)[nH]1` [cj-113, methyl ((1S)-1-(4-hydroxybenzyl)-2-((2S)-2-(5-(4′-(2-((2S)-1-(N-(methoxycarbonyl)-L-alanyl)-2-pyrrolidinyl)-1H-imidazol-5-yl)-4-biphenylyl)-1H-imidazol-2-yl)-1-pyrrolidinyl)-2-oxoethyl)carbamate], the EC50 fell in the range of 0.001 to 0.999 nM.

In the case of `COC(=O)N[C@@H](Cc1ccc(CNC(C)=O)cc1)C(=O)N1CCC[C@H]1c1ncc(-c2ccc(-c3ccc(-c4cnc([C@@H]5CCCN5C(=O)[C@@H](NC(=O)OC)C(C)C)[nH]4)cc3)cc2)[nH]1` [cj-114, methyl ((1S)-1-(4-(acetamidomethyl)benzyl)-2-((2S)-2-(5-(4′-(2-((2S)-1-((2S)-2-((methoxycarbonyl)amino)-3-methylbutanoyl)-2-pyrrolidinyl)-1H-imidazol-5-yl)-4-biphenylyl)-1H-imidazol-2-yl)-1-pyrrolidinyl)-2-oxoethyl)carbamate], the EC50 is 0.001 to 0.999 nM. The result for `CCNC(=O)NCc1ccc(C[C@H](NC(=O)OC)C(=O)N2CCC[C@H]2c2ncc(-c3ccc(-c4ccc(-c5cnc([C@@H]6CCCN6C(=O)[C@@H](NC(=O)OC)C(C)C)[nH]5)cc4)cc3)[nH]2)cc1` [cj-115, methyl ((1S)-1-(4-(((ethylcarbamoyl)amino)methyl)benzyl)-2-((2S)-2-(5-(4′-(2-((2S)-1-((2S)-2-((methoxycarbonyl)amino)-3-methylbutanoyl)-2-pyrrolidinyl)-1H-imidazol-5-yl)-4-biphenylyl)-1H-imidazol-2-yl)-1-pyrrolidinyl)-2-oxoethyl)carbamate] reads 0.001 to 0.999 nM. For the compound `CCN(CC)[C@@H](C(=O)N1CCC[C@H]1c1ncc(-c2ccc(-c3ccc(-c4cnc([C@@H]5CCCN5C(=O)[C@H]5CCC[C@@H]5NC(=O)OC)[nH]4)cc3)cc2)[nH]1)c1ccccc1` [cj-116, methyl ((1S,2S)-2-(((2S)-2-(5-(4′-(2-((2S)-1-((2R)-2-(diethylamino)-2-phenylacetyl)-2-pyrrolidinyl)-1H-imidazol-5-yl)-4-biphenylyl)-1H-imidazol-2-yl)-1-pyrrolidinyl)carbonyl)cyclopentyl)carbamate], the EC50 was 0.001 to 0.999 nM. `COC(=O)N[C@H]1CCC[C@@H]1C(=O)N1CCC[C@H]1c1ncc(-c2ccc(-c3ccc(-c4cnc([C@@H]5CCCN5C(=O)[C@H](NC(=O)OC)c5ccccc5)[nH]4)cc3)cc2)[nH]1` [cj-117, methyl ((1R)-2-((2S)-2-(5-(4′-(2-((2S)-1-(((1S,2S)-2-((methoxycarbonyl)amino)cyclopentyl)carbonyl)-2-pyrrolidinyl)-1H-imidazol-5-yl)-4-biphenylyl)-1H-imidazol-2-yl)-1-pyrrolidinyl)-2-oxo-1-phenylethyl)carbamate]: the EC50 is 0.001 to 0.999 nM. As to `COC(=O)N[C@@H](C)C(=O)N1CCC[C@H]1c1ncc(-c2ccc(-c3ccc(-c4cnc([C@@H]5CCCN5C(=O)[C@H]5CCC[C@@H]5NC(=O)OC)[nH]4)cc3)cc2)[nH]1` [cj-118, methyl ((1S,2S)-2-(((2S)-2-(5-(4′-(2-((2S)-1-(N-(methoxycarbonyl)-L-alanyl)-2-pyrrolidinyl)-1H-imidazol-5-yl)-4-biphenylyl)-1H-imidazol-2-yl)-1-pyrrolidinyl)carbonyl)cyclopentyl)carbamate], the 50% effective concentration (EC50) is 0.001 to 0.999 nM. For the compound `COCC[C@H](NC(=O)OC)C(=O)N1CCC[C@H]1c1ncc(-c2ccc(-c3ccc(-c4cnc([C@@H]5CCCN5C(=O)[C@@H](NC(=O)OC)C(C)C)[nH]4)cc3)cc2)[nH]1` [cj-119, methyl ((1S)-1-(((2S)-2-(5-(4′-(2-((2S)-1-(N-(methoxycarbonyl)-O-methyl-L-homoseryl)-2-pyrrolidinyl)-1H-imidazol-5-yl)-4-biphenylyl)-1H-imidazol-2-yl)-1-pyrrolidinyl)carbonyl)-2-methylpropyl)carbamate], the EC50 was 0.001 to 0.999 nM. Regarding `COCC[C@H](NC(=O)OC)C(=O)N1CCC[C@H]1c1ncc(-c2ccc(-c3ccc(-c4cnc([C@@H]5CCCN5C(=O)[C@H](C)NC(=O)OC)[nH]4)cc3)cc2)[nH]1` [cj-120, methyl ((1S)-3-methoxy-1-(((2S)-2-(5-(4′-(2-((2S)-1-(N-(methoxycarbonyl)-L-alanyl)-2-pyrrolidinyl)-1H-imidazol-5-yl)-4-biphenylyl)-1H-imidazol-2-yl)-1-pyrrolidinyl)carbonyl)propyl)carbamate], the EC50 is 0.001 to 0.999 nM. In the case of `COCC[C@H](NC(=O)OC)C(=O)N1CCC[C@H]1c1ncc(-c2ccc(-c3ccc(-c4cnc([C@@H]5CCCN5C(=O)[C@@H](NC(=O)OC)[C@@H](C)OC)[nH]4)cc3)cc2)[nH]1` [cj-121, methyl ((1S,2R)-2-methoxy-1-(((2S)-2-(5-(4′-(2-((2S)-1-(N-(methoxycarbonyl)-O-methyl-L-homoseryl)-2-pyrrolidinyl)-1H-imidazol-5-yl)-4-biphenylyl)-1H-imidazol-2-yl)-1-pyrrolidinyl)carbonyl)propyl)carbamate], the EC50 was 0.001 to 0.999 nM. As for `COCC[C@H](NC(=O)OC)C(=O)N1CCC[C@H]1c1ncc(-c2ccc(-c3ccc(-c4cnc([C@@H]5CCCN5C(=O)[C@H]5CCC[C@@H]5NC(=O)OC)[nH]4)cc3)cc2)[nH]1` [cj-122, methyl ((1S,2S)-2-(((2S)-2-(5-(4′-(2-((2S)-1-(N-(methoxycarbonyl)-O-methyl-L-homoseryl)-2-pyrrolidinyl)-1H-imidazol-5-yl)-4-biphenylyl)-1H-imidazol-2-yl)-1-pyrrolidinyl)carbonyl)cyclopentyl)carbamate], the figure is 0.001 to 0.999 nM.
